Laboratory results from patent publication US20150141411A1, “SUBSTITUTED 3,4-DIHYDRO-2H-PYRIDO[1,2-A]PYRAZINE-1,6-DIONE DERIVATIVES USEFUL FOR THE TREATMENT OF (INTER ALIA) ALZHEIMER'S DISEASE” (Janssen Pharmaceuticals, Inc., priority 2012, published 2015).

Tests used:
[1] = system: Aβ38; test: In vivo efficacy: brain soluble Aβ38 in non-transgenic rodents (MSD electrochemiluminescence multiplex); parameters: species or system mouse; settings: dose 30 mg/kg oral dosing, brain soluble fraction, animals sacrificed after 4 h; for response vs control in vivo at 30 mg/kg: Mus musculus, po, 4 h, untreated animals (Ctrl) set at 100, read-out: Aβ38 (% vs Ctrl)_Mean
From the text: To determine whether acute administration of an Aβ38 increasing agents would increase Aβ38 levels in vivo, non-transgenic rodents, e.g. mice or rats were used. Animals treated with the Aβ38 increasing agents were examined and compared to those untreated or treated with vehicle and brain levels of soluble Aβ42, Aβ40, Aβ38, and Aβ37 were quantitated by MSD electrochemiluminescence detection technology. Treatment periods varied from hours (h) to days and were adjusted based on the results of the Aβ38 increase once a time course of onset of effect could be established.
A typical protocol for measuring Aβ38 increase in vivo is shown but it is only one of many variations that could be used to optimize the levels of detectable Aβ. For example, Aβ38 increasing agents were formulated in 20% of Captisol® (a sulfobutyl ether of β-cyclodextrin) in water or 20% hydroxypropyl βcyclodextrin. The Aβ38 increasing agents were administered as a single oral dose or by any acceptable route of administration to overnight fasted animals. After 4 h, the animals were sacrificed and Aβ38 levels were analysed.
Blood was collected by decapitation and exsanguinations in EDTA-treated collection tubes. Blood was centrifuged at 1900 g for 10 minutes (min) at 4° C. and the plasma recovered and flash frozen for later analysis. The brain was removed from the cranium and hindbrain. The cerebellum was removed and the left and right hemisphere were separated. The left hemisphere was stored at −18° C. for quantitative analysis of test compound levels. The right hemisphere was rinsed with phosphate-buffered saline (PBS) buffer and immediately frozen on dry ice and stored at −80° C. until homogenization for biochemical assays.
Mouse brains from non-transgenic animals were resuspended in 8 volumes of 0.4% DEA (diethylamine)/50 mM NaCl containing protease inhibitors (Roche-11873580001 or 04693159001) per gram of tissue, e.g. for 0.158 g brain, add 1.264 ml of 0.4% DEA. All samples were homogenized in the FastPrep-24 system (MP Biomedicals) using lysing matrix D (MPBio #6913-100) at 6 m/s for 20 seconds. Homogenates were centrifuged at 20800×g for 5 min and supernatants collected. Supernatants were centrifuged at 221.300×g for 50 min. The resulting high speed supernatants were then transferred to fresh eppendorf tubes. Nine parts of supernatant were neutralized with 1 part 0.5 M Tris-HCl pH 6.8 and used to quantify Aβ.
To quantify the amount of Aβ42, Aβ40, Aβ38, and Aβ37 in the soluble fraction of the brain homogenates, simultaneous specific detection of Aβ42, Aβ40, Aβ38, and Aβ37 was performed using MSD's electro-chemiluminescence multiplex detection technology. In this assay purified monoclonal antibodies specific for Abeta37 (JRD/Aβ37/3), Abeta38 (J&JPRD/Aβ38/5), Abeta40 (JRF/cAβ40/28), and Abeta42 (JRF/cAβ42/26) were coated on MSD 4-plex plates. Briefly, the standards (a dilution of synthetic Aβ42, Aβ40, Aβ38, and Aβ37) were prepared in 1.5 ml Eppendorf tube in Ultraculture, with final concentrations ranging from 10000 to 0.3 pg/m. The samples and standards were co-incubated with Sulfo-tag labelled JRF/rAβ/2 antibody to the N-terminus of Aβ as detector antibody. 50 μl of conjugate/sample or conjugate/standards mixtures were then added to the antibody-coated plate. The plate was allowed to incubate overnight at 4° C. in order to allow formation of the antibody-amyloid complex. Following this incubation and subsequent wash steps the assay was finished by adding read buffer according to the manufacturer's instructions (MesoScale Discovery, Gaitherburg, Md.).
The SULFO-TAG emits light upon electrochemical stimulation initiated at the electrode. MSD Sector instrument SI6000 was used for signal read-out.
In this model a Aβ38 increase compared to untreated animals would be advantageous, in particular a Aβ38 increase with at least 10%, more in particular a Aβ38 increase with at least 20%. […]

[2] = target: T1, γ-secretase (Homo sapiens, UniProt P49768); test: Screening for γ-secretase-modulating activity: Aβtotal in supernatant of SKNBE2 cells carrying hAPP 695 wild type (Alphalisa); format: cell-based; settings: SKNBE2 human neuroblastoma cells carrying hAPP 695 wild type, overnight incubation, Aβtotal in cell supernatant
T1 construct: endogenous in cells; host or cells: SKNBE2 human neuroblastoma cells (carrying hAPP 695 wild type as substrate)
Procedure, shortened: (§1)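 SKNBE2 neuroblastoma cells expressing wild-type hAPP 695 plated at 10^4 cells/well in Ultraculture with test compound, incubated overnight at 37° C. Aβ42 (C-terminal/N-terminal antibody pair) and Aβtotal (N-terminal/4G8 pair) in supernatant quantified by AlphaLISA. IC50 from 4-parameter fit of percent of compound-free control.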

[3] = target: T1, γ-secretase; test: Screening for γ-secretase-modulating activity: Aβ42 in supernatant of SKNBE2 cells carrying hAPP 695 wild type (Alphalisa); format: cell-based; settings: SKNBE2 human neuroblastoma cells carrying hAPP 695 wild type, overnight incubation, Aβ42 in cell supernatant
Procedure, shortened: as §1

| IC50 [2] | IC50 [3] | Structure (SMILES) | response vs control in vivo at 30 mg/kg [1] | Aβ38 (% vs Ctrl)_Mean ([1]; untreated animals (Ctrl) set at 100, 30 mg/kg) |
| --- | --- | --- | --- | --- |
| > 10000 nM | 60 nM | Cc1cn(-c2ccc3n(c2=O)C[C@@H](C)N(Cc2cc(N4CCOC(C(F)(F)F)C4)cc(C(F)(F)F)c2)C3=O)cn1 (mixture of isomers) [compound 153] | 108% | – |
| > 10000 nM | 140 nM | Cc1cn(-c2ccc3n(c2=O)CCN(C(C)c2cccc(Cl)c2Cl)C3=O)cn1 (single isomer, unassigned) [10a] | – | – |
| > 10000 nM | 70 nM | Cc1cn(-c2ccc3n(c2=O)CC(C)N(C(C)c2cc(C(F)(F)F)cc(C(F)(F)F)c2)C3=O)cn1.Cl (single isomer, unassigned) [compound 111] | 136% | – |
| > 10000 nM | 70 nM | Cc1cn(-c2ccc3n(c2=O)CC(C)N(C(C)c2cc(C(F)(F)F)cc(C(F)(F)F)c2)C3=O)cn1.Cl (single isomer, unassigned) [compound 112] | – | 153 % vs Ctrl |
| > 10000 nM | 110 nM | CCC(c1cc(OC)cc(C(F)(F)F)c1)N1C(=O)c2ccc(-n3cnc(C)c3)c(=O)n2C[C@H]1C (single isomer, unassigned) [compound 141] | 145% | – |
| > 10000 nM | 60 nM | CCOc1cc(C(C)N2C(=O)c3ccc(-n4cnc(C)c4)c(=O)n3C[C@H]2C)cc(C(F)(F)F)c1 (single isomer, unassigned) [compound 143] | 122% | – |
| 6760 nM | 30 nM | Cc1cn(-c2ccc3n(c2=O)CCN(C(C)c2c[nH]c4cc(F)c(Cl)cc24)C3=O)cn1 (single isomer, unassigned) [compound 183] | 141% | – |
| 5890 nM | 20 nM | Cc1cn(-c2ccc3n(c2=O)CCN(C(C)c2cn(C)c4cc(F)c(Cl)cc24)C3=O)cn1 (single isomer, unassigned) [compound 185] | 170% | – |
| – | 220 nM | Cc1cn(-c2ccc3n(c2=O)CC(C)N(C(C)c2cn(C)c4cc(F)c(Cl)cc24)C3=O)cn1 (single isomer, unassigned) [compound 189] | 116% | – |
| 1820 nM | 10 nM | CCn1cc(C(C)N2C(=O)c3ccc(-n4cnc(C)c4)c(=O)n3CC2C)c2cc(Cl)c(F)cc21 (single isomer, unassigned) [compound 192] | 147% | – |
| 1550 nM | 10 nM | Cc1cn(-c2ccc3n(c2=O)CC(C)N(C(C)c2cn(C(C)C)c4cc(F)c(Cl)cc24)C3=O)cn1 (single isomer, unassigned) [compound 194] | 197% | – |
| 3090 nM | 20 nM | Cc1cn(-c2ccc3n(c2=O)CC(C)N(C(C)c2c[nH]c4c(F)cc(Cl)cc24)C3=O)cn1 (single isomer, unassigned) [compound 219] | 119% | – |
| > 10000 nM | 110 nM | CCC1Cn2c(ccc(-n3cnc(C)c3)c2=O)C(=O)N1Cc1cc(C(F)(F)F)cc(C(F)(F)F)c1.Cl (stereo not shown) [compound 1] | – | – |
| > 10000 nM | 170 nM | Cc1cn(-c2ccc3n(c2=O)C[C@@H](C)N(Cc2ccc(Cl)c(Cl)c2)C3=O)cn1 [compound 2] | – | – |
| > 10000 nM | 100 nM | Cc1cn(-c2ccc3n(c2=O)CC(C)N(Cc2cc(C(F)(F)F)cc(C(F)(F)F)c2)C3=O)cn1 (stereo not shown) [compound 3] | 133% | – |
| > 10000 nM | 80 nM | Cc1cn(-c2ccc3n(c2=O)CCN(Cc2cccc(-c4ccccc4)c2)C3=O)cn1 [compound 5] | – | – |
| > 10000 nM | 70 nM | Cc1cn(-c2ccc3n(c2=O)CC(C)N(Cc2cc(OCC4CC4)cc(C(F)(F)F)c2)C3=O)cn1.Cl (stereo not shown) [compound 6] | 118% | – |

| IC50 [2] | IC50 [3] | Structure (SMILES) | response vs control in vivo at 30 mg/kg [1] | Aβ38 (% vs Ctrl)_Mean ([1]; untreated animals (Ctrl) set at 100, 30 mg/kg) |
| --- | --- | --- | --- | --- |
| > 10000 nM | 140 nM | CCc1cn(-c2ccc3n(c2=O)CC(C)N(Cc2cc(C(F)(F)F)cc(C(F)(F)F)c2)C3=O)cn1.Cl (stereo not shown) [compound 7] | – | – |
| > 10000 nM | 2570 nM | Cc1cn(-c2ccc3n(c2=O)CCN(Cc2ccccc2C)C3=O)cn1 [compound 22] | – | – |
| > 10000 nM | 140 nM | Cc1cn(-c2ccc3n(c2=O)C[C@@H](C)N(Cc2cccc(C(C)(C)C)c2)C3=O)cn1 [compound 23] | – | – |
| > 10000 nM | 140 nM | Cc1cn(-c2ccc3n(c2=O)C[C@@H](C)N(Cc2ccc(C(F)(F)F)c(C(F)(F)F)c2)C3=O)cn1 [compound 46] | – | – |
| > 10000 nM | 40 nM | Cc1cn(-c2ccc3n(c2=O)C[C@@H](C)N(CCc2cc(C(F)(F)F)cc(C(F)(F)F)c2)C3=O)cn1 [compound 50] | 160% | – |
| > 10000 nM | 180 nM | Cc1cc(CN2C(=O)c3ccc(-n4cnc(C)c4)c(=O)n3C[C@H]2C)cc(C(F)(F)F)c1 [compound 59] | – | – |
| > 10000 nM | 130 nM | Cc1cn(-c2ccc3n(c2=O)C[C@@H](C)N(Cc2ccc(Cl)c(C(F)(F)F)c2)C3=O)cn1 [compound 62] | – | – |
| > 10000 nM | 190 nM | Cc1cn(-c2ccc3n(c2=O)C[C@@H](C)N(Cc2cc(Cl)cc(C(F)(F)F)c2)C3=O)cn1 [compound 63] | – | – |
| > 10000 nM | 370 nM | Cc1cn(-c2ccc3n(c2=O)CCN(Cc2ccc(Cl)c(C(F)(F)F)c2)C3=O)cn1 [compound 65] | – | – |
| > 10000 nM | 100 nM | Cc1cn(-c2ccc3n(c2=O)C[C@@H](C)N(Cc2cc(N4CCC(C)CC4)ccc2Cl)C3=O)cn1 [compound 80] | 133% | – |
| > 10000 nM | 110 nM | Cc1cn(-c2ccc3n(c2=O)C[C@@H](C)N(Cc2cc(N4CCCC4)ccc2Cl)C3=O)cn1 [compound 82] | 118% | – |
| > 10000 nM | 170 nM | Cc1cn(-c2ccc3n(c2=O)CCN(Cc2ccc(C)c(N4CCCCC4)c2)C3=O)cn1 [compound 99] | – | – |
| > 10000 nM | 40 nM | Cc1cn(-c2ccc3n(c2=O)C[C@@H](C)N(Cc2cc(CC4CC4)cc(C(F)(F)F)c2)C3=O)cn1 [compound 110] | 102% | – |
| > 10000 nM | 80 nM | Cc1cn(-c2ccc3n(c2=O)C[C@@H](C)N(Cc2cc(C4CC4)cc(C(F)(F)F)c2)C3=O)cn1 [compound 116] | 182% | – |
| > 10000 nM | 190 nM | C[C@@H]1Cn2c(ccc(-n3cnc(Cl)c3)c2=O)C(=O)N1Cc1cc(C(F)(F)F)cc(C(F)(F)F)c1 [compound 118] | 140% | – |
| > 10000 nM | 90 nM | Cc1cn(-c2ccc3n(c2=O)C[C@@H](C)N(Cc2cc(OC(C)C)nc(C(F)(F)F)c2)C3=O)cn1 [compound 128] | 162% | – |
